The results in this text go back to patent publication US5430027A, “2-chloro-N^6 -substituted adenosines, their pharmaceutical compositions, and activity in treating ischemias” (Novo Nordisk A/S, priority 1992, dated 1995).

One assay concerns the target T1, adenosine A1 receptor (Rattus norvegicus, UniProt P25099).
T1 construct: from tissue
T1 sequence (P25099 1-326): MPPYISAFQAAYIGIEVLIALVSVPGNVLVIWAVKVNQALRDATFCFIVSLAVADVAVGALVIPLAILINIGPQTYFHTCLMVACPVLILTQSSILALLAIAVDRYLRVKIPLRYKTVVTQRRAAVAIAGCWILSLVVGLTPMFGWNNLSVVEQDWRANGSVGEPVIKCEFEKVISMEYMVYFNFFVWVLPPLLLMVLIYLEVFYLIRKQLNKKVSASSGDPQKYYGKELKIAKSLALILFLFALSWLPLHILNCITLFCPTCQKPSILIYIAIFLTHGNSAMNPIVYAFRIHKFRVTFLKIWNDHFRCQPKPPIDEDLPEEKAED
In words: In vitro binding to adenosine A1 receptor, [3H]-R-PIA radioligand. The note with it: for Ratio A2/A1: A2 binding Ki50 divided by A1 binding Ki50 (selectivity); for Ki: radioligand [3H]-R-PIA, read-out: A1 receptor binding (Ki50). As to the method: (§1) Evaluation of in vitro binding to adenosine A1 and A2 receptors
(§2) The affinity of the novel compounds described in this invention for the adenosine A1 receptor was determined essentially as described in the literature using [^3 H]-R-PIA as a radioligand (Naunyn-Schmiedeberg's Archives of Pharmacology, 1980, 313, 179-187). Affinity for the A2 receptor was measured using the radioligand [^3 H]-CGS 21680 (European Journal of Pharmacology, 1989, 168, 243-246), and the values for representative compounds is given in the table below.

The target in a further assay is T2, A2 receptor (Rattus norvegicus, UniProt P30543).
T2 construct: from tissue
In words: In vitro binding to adenosine A2 receptor, [3H]-CGS 21680 radioligand. As to conditions: radioligand [3H]-CGS 21680; read-out: A2 receptor binding (Ki50). The procedure:
as §1, §2

T2 sequence (P30543 whole entry): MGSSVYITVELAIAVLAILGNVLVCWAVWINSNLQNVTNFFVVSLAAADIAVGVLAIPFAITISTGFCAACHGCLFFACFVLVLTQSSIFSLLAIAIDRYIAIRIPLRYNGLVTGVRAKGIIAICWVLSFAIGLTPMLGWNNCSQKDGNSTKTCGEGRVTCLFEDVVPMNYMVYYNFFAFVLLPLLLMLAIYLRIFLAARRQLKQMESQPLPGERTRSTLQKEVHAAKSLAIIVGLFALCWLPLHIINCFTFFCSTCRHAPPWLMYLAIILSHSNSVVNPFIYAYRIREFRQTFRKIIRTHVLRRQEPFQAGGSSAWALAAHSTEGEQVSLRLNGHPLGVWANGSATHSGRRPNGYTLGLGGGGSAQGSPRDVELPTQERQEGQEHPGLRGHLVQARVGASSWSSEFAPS

In the case of `CN(C)Nc1nc(Cl)nc2c1ncn2[C@@H]1O[C@H](CO)[C@@H](O)[C@H]1O` [Example 3, 2-Chloro-N-(N,N-dimethylamino)adenosine], at adenosine A1 receptor, the “Ratio A2/A1” value is recorded as 92 and the Ki was 18 nM. At A2 receptor, the Ki worked out at 1660 nM.

Consider `OC[C@H]1O[C@@H](n2cnc3c(NOC4CCCC4)nc(Cl)nc32)[C@H](O)[C@@H]1O` [Example 7, 2-Chloro-N-cyclopentyloxyadenosine], for which, at adenosine A1 receptor, the “Ratio A2/A1” value was 429 and the Ki is 6.7 nM. The Ki on A2 receptor amounted to 2880 nM.

On to `CONc1nc(Cl)nc2c1ncn2[C@@H]1O[C@H](CO)[C@@H](O)[C@H]1O` [Example 8, 2-Chloro-N-methoxyadenosine], for which, at adenosine A1 receptor, the “Ratio A2/A1” value is reported as 55 and the Ki was 21 nM. In addition, on A2 receptor, the Ki is 1150 nM.
